Measurements taken from ChEMBL document CHEMBL5390248, “Design, synthesis and anticancer activity evaluation of 4-(3-1H-indazolyl)amino quinazoline derivatives as PAK4 inhibitors” (Bioorg Med Chem, 2023).

Columns and labels:
[1] = biological target: T1, Serine/threonine-protein kinase PAK 4 (Homo sapiens, UniProt O96013); assay: Inhibition of PAK4 (unknown origin) using lipid substrate at 100 nM incubated for 40 mins in presence of ATP by ADP-Glo plus luminescence kinase assay relative to control
Target sequence in this assay (O96013 whole entry, looked up): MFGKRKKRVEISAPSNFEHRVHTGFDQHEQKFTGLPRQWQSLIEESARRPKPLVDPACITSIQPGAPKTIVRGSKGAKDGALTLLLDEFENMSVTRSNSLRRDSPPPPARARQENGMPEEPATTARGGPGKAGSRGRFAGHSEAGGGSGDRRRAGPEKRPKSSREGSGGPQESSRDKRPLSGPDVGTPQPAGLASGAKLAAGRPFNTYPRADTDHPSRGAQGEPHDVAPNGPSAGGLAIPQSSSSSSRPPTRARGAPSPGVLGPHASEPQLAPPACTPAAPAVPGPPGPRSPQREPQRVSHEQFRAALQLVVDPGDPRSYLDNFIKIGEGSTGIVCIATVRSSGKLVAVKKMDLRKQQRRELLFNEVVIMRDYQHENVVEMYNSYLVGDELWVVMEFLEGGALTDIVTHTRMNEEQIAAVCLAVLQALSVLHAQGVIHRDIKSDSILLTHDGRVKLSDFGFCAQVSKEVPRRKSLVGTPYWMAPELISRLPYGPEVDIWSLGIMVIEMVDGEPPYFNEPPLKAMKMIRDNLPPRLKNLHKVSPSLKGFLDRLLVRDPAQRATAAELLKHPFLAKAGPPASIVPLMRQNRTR

A549 [2] = assay: cells; conditions: Homo sapiens, A549, 24 h
[3] = biological target: T1, Serine/threonine-protein kinase PAK 4; assay: Inhibition of PAK4 (unknown origin) using lipid substrate incubated for 40 mins in presence of ATP by ADP-Glo plus luminescence kinase assay
Target sequence in this assay (O96013 whole entry): as the sequence (O96013 whole entry, looked up) above

[4] = Antiproliferative activity against HEK293T cells assessed as inhibition of cell growth incubated for 24 hrs by CCK8 assay; assay type: toxicity, cell-based, HEK-293T; conditions: human
A549 [5] = assay: cells; conditions: Homo sapiens, A549, 72 h
A549 [6] = assay: Induction of cell cycle arrest in human A549 cells assessed as accumulation of G1 phase cells at 3 uM measured for 24 hrs by PI staining based flow cytometric analysis (reference value: 27.5 % ); assay type: functional
A549 [7] = assay: Induction of cell cycle arrest in human A549 cells assessed as accumulation of S phase cells at 0.5 uM measured for 24 hrs by PI staining based flow cytometric analysis (reference value: 35.3 % ); assay type: functional
A549 [8] = assay: Induction of apoptosis in human A549 cells assessed as early apoptotic cells at 1 uM measured after 24 hrs by AnnexinV-FITC/propidium iodide staining based flow cytometry method (reference value: 0.049 %); assay type: functional
A549 [9] = assay: Induction of apoptosis in human A549 cells assessed as late apoptotic cells at 3 uM measured after 24 hrs by AnnexinV-FITC/propidium iodide staining based flow cytometry method (reference value: 0.12 %); assay type: functional
A549 [10] = assay: Induction of cell cycle arrest in human A549 cells assessed as accumulation of G2 phase cells at 1 uM measured for 24 hrs by PI staining based flow cytometric analysis (reference value: 32.4 % ); assay type: functional
A549 [11] = assay: Induction of cell cycle arrest in human A549 cells assessed as accumulation of G1 phase cells at 1 uM measured for 24 hrs by PI staining based flow cytometric analysis (reference value: 27.5 % ); assay type: functional
A549 [12] = assay: Induction of cell cycle arrest in human A549 cells assessed as accumulation of S phase cells at 3 uM measured for 24 hrs by PI staining based flow cytometric analysis (reference value: 35.3 % ); assay type: functional
A549 [13] = assay: Induction of apoptosis in human A549 cells assessed as late apoptotic cells at 1 uM measured after 24 hrs by AnnexinV-FITC/propidium iodide staining based flow cytometry method (reference value: 0.12 %); assay type: functional
A549 [14] = assay: Induction of cell cycle arrest in human A549 cells assessed as accumulation of G1 phase cells at 0.5 uM measured for 24 hrs by PI staining based flow cytometric analysis (reference value: 27.5 % ); assay type: functional
A549 [15] = assay: Induction of apoptosis in human A549 cells assessed as necrotic cells at 1 uM measured after 24 hrs by AnnexinV-FITC/propidium iodide staining based flow cytometry method (reference value: 1.11 %); assay type: functional
A549 [16] = assay: Induction of apoptosis in human A549 cells assessed as viable cells at 1 uM measured after 24 hrs by AnnexinV-FITC/propidium iodide staining based flow cytometry method (reference value: 98.7 %); assay type: functional; conditions: read-out: Activity
A549 [17] = assay: Induction of apoptosis in human A549 cells assessed as viable cells at 3 uM measured after 24 hrs by AnnexinV-FITC/propidium iodide staining based flow cytometry method (reference value: 98.7 %); assay type: functional; conditions: read-out: Activity
A549 [18] = assay: Induction of cell cycle arrest in human A549 cells assessed as accumulation of G2 phase cells at 0.5 uM measured for 24 hrs by PI staining based flow cytometric analysis (reference value: 32.4 % ); assay type: functional
A549 [19] = assay: Induction of apoptosis in human A549 cells assessed as early apoptotic cells at 0.5 uM measured after 24 hrs by AnnexinV-FITC/propidium iodide staining based flow cytometry method (reference value: 0.049 %); assay type: functional
A549 [20] = assay: Induction of cell cycle arrest in human A549 cells assessed as accumulation of S phase cells at 1 uM measured for 24 hrs by PI staining based flow cytometric analysis (reference value: 35.3 % ); assay type: functional
A549 [21] = assay: Induction of apoptosis in human A549 cells assessed as necrotic cells at 0.5 uM measured after 24 hrs by AnnexinV-FITC/propidium iodide staining based flow cytometry method (reference value: 1.11 %); assay type: functional
A549 [22] = assay: Induction of apoptosis in human A549 cells assessed as viable cells at 0.5 uM measured after 24 hrs by AnnexinV FITC/propidium iodide staining based flow cytometry method (reference value: 98.7 %); assay type: functional; conditions: read-out: Activity
A549 [23] = assay: Induction of apoptosis in human A549 cells assessed as late apoptotic cells at 0.5 uM measured after 24 hrs by AnnexinV-FITC/propidium iodide staining based flow cytometry method (reference value: 0.12 %); assay type: functional
A549 [24] = assay: Induction of cell cycle arrest in human A549 cells assessed as accumulation of G2 phase cells at 3 uM measured for 24 hrs by PI staining based flow cytometric analysis (reference value: 32.4 % ); assay type: functional
A549 [25] = assay: Induction of apoptosis in human A549 cells assessed as necrotic cells at 3 uM measured after 24 hrs by AnnexinV-FITC/propidium iodide staining based flow cytometry method (reference value: 1.11 %); assay type: functional
A549 [26] = assay: Induction of apoptosis in human A549 cells assessed as early apoptotic cells at 3 uM measured after 24 hrs by AnnexinV-FITC/propidium iodide staining based flow cytometry method (reference value: 0.049 %); assay type: functional
A549 [27] = assay: Antiproliferative activity against human A549 cells assessed as inhibition of cell growth incubated for 72 hrs by CCK8 assay; assay type: functional, cell-based; conditions: A549, 72 h

C[C@H](N)CNC(=O)c1nc(Nc2n[nH]c3ccccc23)c2cc(Cl)ccc2n1
inhibition [1]: 25%

C[C@@H](N)CNC(=O)c1nc(Nc2n[nH]c3ccccc23)c2cc(Cl)ccc2n1
inhibition [1]: 35%

O=C(NC1CNC1)c1nc(Nc2n[nH]c3ccccc23)c2cc(Cl)ccc2n1
inhibition [1]: 10%

CNCCNC(=O)c1nc(Nc2n[nH]c3ccccc23)c2cc(Cl)ccc2n1
inhibition [1]: 3%

N[C@@H](CNC(=O)c1nc(Nc2n[nH]c3ccccc23)c2cc(Cl)ccc2n1)c1ccccc1
inhibition [1]: 78%
IC50 (A549 [2]): 1.9 µM
IC50 [3]: 0.013 µM
IC50 at 24 h [4]: > 10 µM

C[C@@H]1CN(C(=O)c2nc(Nc3n[nH]c4ccccc34)c3cc(Cl)ccc3n2)CCN1
inhibition [1]: 10%

O=C(NCC1CNC1)c1nc(Nc2n[nH]c3ccccc23)c2cc(Cl)ccc2n1
inhibition [1]: 15%

Cc1nc(Nc2n[nH]c3c2CN(C(=O)N[C@H](CN(C)C)c2ccccc2)C3(C)C)c2sccc2n1 [PF-03758309]
inhibition [1]: 81%
IC50 (A549 [2]): 0.67 µM
IC50 (A549 [5]): 0.02 µM
IC50 at 24 h [4]: > 10 µM

CN(C)CCCNC(=O)c1nc(Nc2n[nH]c3ccccc23)c2cc(Cl)ccc2n1
inhibition [1]: 11%

CC(C)[C@@H](N)CNC(=O)c1nc(Nc2n[nH]c3ccccc23)c2cc(Cl)ccc2n1
Activity (A549 [6]): 50.9%
Activity (A549 [7]): 35%
Activity (A549 [8]): 27%
Activity (A549 [9]): 3.97%
Activity (A549 [10]): 22.7%
Activity (A549 [11]): 45.2%
Activity (A549 [12]): 26%
Activity (A549 [13]): 4.83%
Activity (A549 [14]): 34.1%
Activity (A549 [15]): 3.96%
viability at 1 µM (A549 [16]): 64.2%
inhibition [1]: 73%
viability at 3 µM (A549 [17]): 50.5%
Activity (A549 [18]): 28.9%
Activity (A549 [19]): 15.1%
Activity (A549 [20]): 31.2%
IC50 (A549 [2]): 0.61 µM
Activity (A549 [21]): 2.2%
IC50 [3]: 0.01 µM
viability at 0.5 µM (A549 [22]): 81.6%
IC50 at 24 h [4]: > 10 µM
Activity (A549 [23]): 1.1%
Activity (A549 [24]): 21.9%
Activity (A549 [25]): 4.6%
Activity (A549 [26]): 41%

NCCNC(=O)c1nc(Nc2n[nH]c3ccccc23)c2cc(Cl)ccc2n1
inhibition [1]: 2%

O=C(NCCO)c1nc(Nc2n[nH]c3ccccc23)c2cc(Cl)ccc2n1
inhibition [1]: 3%

N[C@@H](CNC(=O)c1nc(Nc2n[nH]c3ccccc23)c2cc(Cl)ccc2n1)Cc1ccccc1
inhibition [1]: 75%
IC50 [3]: 0.011 µM

CN(C)CCNC(=O)c1nc(Nc2n[nH]c3ccccc23)c2cc(Cl)ccc2n1
inhibition [1]: 4%

C[C@H]1CN(C(=O)c2nc(Nc3n[nH]c4ccccc34)c3cc(Cl)ccc3n2)CCN1
inhibition [1]: 3%

N[C@H](CNC(=O)c1nc(Nc2n[nH]c3ccccc23)c2cc(Cl)ccc2n1)Cc1ccccc1
inhibition [1]: 77%
IC50 (A549 [2]): 2.28 µM
IC50 [3]: 0.009 µM
IC50 at 24 h [4]: > 10 µM

Cc1cc(Nc2cc(Cc3ccccc3)nc(NC3CCNCC3)n2)n[nH]1
IC50 (A549 [27]): 2.53 µM

N[C@H](CNC(=O)c1nc(Nc2n[nH]c3ccccc23)c2cc(Cl)ccc2n1)c1ccccc1
inhibition [1]: 70%
IC50 [3]: 0.024 µM

CNC[C@@H](C)NC(=O)c1nc(Nc2n[nH]c3ccccc23)c2cc(Cl)ccc2n1
inhibition [1]: 27%

O=C(c1nc(Nc2n[nH]c3ccccc23)c2cc(Cl)ccc2n1)N1CCNCC1
inhibition [1]: 4%

CNC[C@H](C)NC(=O)c1nc(Nc2n[nH]c3ccccc23)c2cc(Cl)ccc2n1
inhibition [1]: 3%

CC(C)[C@H](N)CNC(=O)c1nc(Nc2n[nH]c3ccccc23)c2cc(Cl)ccc2n1
inhibition [1]: 76%
IC50 [3]: 0.016 µM
